# Earlier results, collected in patent publication US4033823A, “Process to produce lysocellin” (Hoffmann-La Roche Inc., priority 1976, dated 1977).
# Assays:
# fungi = conditions: some fungi
# staphylococcus aureus = conditions: intraperitoneal administration
# [1] = mice, intraperitoneally
# [2] = system: Antibiotic resistant E. coli; conditions: E. coli resistant to streptomycin, chloramphenicol, kanamycin, tetracyclin and sulfonamide
# [3] = system: Antibiotic resistant S. aureus; conditions: S. aureus resistant to streptomycin, erythromycin, chloramphenicol and penicillin
# [4] = system: antibiotic resistant Staphylococcus aureus
# [5] = system: Staphylococcus aureus FDA 209P
# Bacillus subtilis [6] = conditions: Bacillus subtilis grown on liquid medium
# [7] = 66% dimethylformamide
# Bacillus subtilis [8] = system: Bacillus subtilis
substance,measurement,setting,value
Lysocellin,Minimum inhibitory Concentration,Alternaria kikuchiana,100 µg/mL
same,Antimicrobial activity,fungi,active against some fungi
same,Minimum inhibitory Concentration,Fusarium oxysporum,100 µg/mL
same,activity against staphylococcus aureus infection in mice,staphylococcus aureus,inactive
same,Minimum inhibitory Concentration,Shigella dysenteriae,> 100 µg/mL
same,Minimum inhibitory Concentration,Salmonella typhimurium,> 100 µg/mL
same,LD50,[1],about 70 mg/kg
same,Minimum inhibitory Concentration,Escherichia coli,> 100 µg/mL
same,Minimum inhibitory Concentration,[2],> 100 µg/mL
same,Minimum inhibitory Concentration,[3],4 µg/mL
same,Antimicrobial activity,[4],active
same,Minimum inhibitory Concentration,[5],10 µg/mL
same,Minimum inhibitory Concentration,Pseudomonas aeruginosa,> 100 µg/mL
same,Minimum inhibitory Concentration,Sarcina lutea,10 µg/mL
same,bacterial lysis,Bacillus subtilis [6],caused bacterial lysis
same,Minimum inhibitory Concentration,Helminthosporium oryzae,50 µg/mL
same,Antimicrobial activity,gram-negative bacteria,not active
same,pKa',[7],6.6
same,Minimum inhibitory Concentration,Botrytis cinerea,50 µg/mL
same,Minimum inhibitory Concentration,Bacillus subtilis [8],10 µg/mL
same,Antimicrobial activity,gram-positive bacteria,active
same,Minimum inhibitory Concentration,Mycobacterium smegmatis,20 µg/mL
